Activity calls are given as the source filed them. The calls are words filed in the database; no cut-off is given here.
Columns and labels:
[1] = Inhibition of Bos taurus (bovine) heart mitochondrial […] activity assessed per mg protein
[2] = Inhibition of Bos taurus (bovine) heart mitochondrial electron transport protein complex 4 assessed per mg protein
[3] = system: Solanum tuberosum; experiment: Inhibition of Solanum tuberosum (potato) tuber electron transport protein complex 2 activity
[4] = system: Solanum tuberosum; experiment: Inhibition of Solanum tuberosum (potato) tuber electron transport protein complex 3 activity
[5] = Inhibition of Bos taurus (bovine) heart mitochondrial electron transport protein complex 3 assessed per mg protein
[6] = Inhibition of Bos taurus (bovine) heart mitochondrial electron transport protein complex 1 assessed per mg protein
[7] = Inhibition of Bos taurus (bovine) heart mitochondrial electron transport protein complex 2/3 assessed per mg protein
[8] = Inhibition of Solanum tuberosum (potato) tuber proton-pump NADH dehydrogenase activity assessed per mg protein
[9] = Inhibition of Bos taurus (bovine) heart mitochondrial electron transport protein complex 2 assessed per mg protein
[10] = system: Solanum tuberosum; experiment: Inhibition of Solanum tuberosum (potato) tuber electron transport protein complex 4 activity
[11] = system: Solanum tuberosum; experiment: Inhibition of Solanum tuberosum (potato) tuber succinate oxidase activity at 3600 nmol/mg protein

CC[C@H](C)[C@@H](OC(C)=O)[C@@H](C)C1=CC(=O)C2=C(O[C@]3(C)CC[C@H]4O[C@@H](C(C)(C)O)CC[C@]4(C)[C@H]3[C@@H]2O)C1=O [COCHLIOQUINONE A]
IC50 [1]: 115 nmol

CC[C@H](C)C(=O)[C@@H](C)C1=CC(=O)C2=C(O[C@]3(C)CC[C@H]4O[C@@H](C(C)(C)O)CC[C@]4(C)[C@H]3C2)C1=O [COCHLIOQUINONE B]
IC50 [1]: 83 nmol
IC50 [2]: > 3600 nmol
inhibition [3]: inactive
inhibition [4]: inactive
IC50 [5]: > 3600 nmol
IC50 [6]: 370 nmol
IC50 [7]: > 3600 nmol
IC50 [8]: 3000 nmol
IC50 [9]: > 3600 nmol
inhibition [10]: inactive
inhibition [11]: inactive

CC[C@H](C)[C@@H](OC(C)=O)[C@@H](C)c1cc(O)c2c(c1O)O[C@]1(C)CC[C@H]3O[C@@H](C(C)(C)O)CC[C@]3(C)[C@H]1C2=O [ISOCOCHLIOQUINONE A]
IC50 [1]: 56 nmol

C/C=C(\C)[C@@H](OC(C)=O)[C@@H](C)C1=CC(=O)C2=C(O[C@]3(C)CC[C@H]4O[C@@H](C(C)(C)O)CC[C@]4(C)[C@H]3[C@@H]2O)C1=O [STEMPHONE]
IC50 [1]: 160 nmol

— ChEMBL document CHEMBL3046518, “Phytotoxic Compounds Cochlioquinones Are Inhibitors of Mitochondrial NADH-Ubiquinone Reductase” (J Pestic Sci, 1996)
